From patent publication US11395821B2, “Treatment of EGFR-driven cancer with fewer side effects” (G1 Therapeutics, Inc., priority 2017, dated 2022)
Like-named read-outs stand apart in the source and are kept apart here.

Key:
[1] = cited from earlier work
[2] = cited from earlier work; for Grade ≥3 decrease in neutrophil count: laboratory findings
[3] = cited from earlier work; remark: listed apart in the source
[4] = in vivo; cited from earlier work
[5] = cited from earlier work; remark: listed apart in the source
[6] = tested on: EGFR^ex19del/T790M PDX NSCLC tumor fragments (TM00219, Jackson Labs); experiment: Example 4: Compound IV +/- osimertinib in EGFR ex19del/T790M PDX model; format: in vivo, NSG mice; conditions: once daily oral gavage 28 days; Compound IV 100 mg/kg or osimertinib 2.5 mg/kg alone
From the text: (§1) The x-axis is days from initiation measured in time and the y-axis is mean tumor volume measured in mm^3.
The x-axis is days from initiation measured in time and the y-axis is median tumor volume measured in mm^3.
After 28 days tumors continued to be measured until they reached tumor burden (>2000 mm^3).

[7] = human, in vivo; cited from earlier work
[8] = tested on: EGFR^ex20ins PDX NSCLC tumor fragments (LU0387, CrownBio); experiment: Example 5: Compound IV +/- osimertinib in EGFR ex20ins PDX model; format: in vivo, BALB/c nude mice; conditions: once daily oral gavage, 17 days; Compound IV 100 mg/kg or osimertinib 10 mg/kg alone
From the text: as §1
Tumors continued to be measured until they reached tumor burden (>3000 mm3).

[9] = cited from earlier work; remark: listed apart in the source
[10] = cited from earlier work; remark: listed apart in the source
[11] = all grades, GILOTRIF n=229, pemetrexed/cisplatin n=111

Structure (SMILES): COc1cc2ncnc(Nc3ccc(F)c(Cl)c3)c2cc1OCCCN1CCOCC1 [IRESSA, gefitinib]
- skin reactions ([1]; across NSCLC): 47%
- incidence of fatal hepatotoxicity ([1]; human, in vivo): 0.04%

Structure (SMILES): CCN1CCN(Cc2ccc(Nc3ncc(F)c(-c4cc(F)c5nc(C)n(C(C)C)c5c4)n3)nc2)CC1 [abemaciclib]
- Grade ≥3 decrease in neutrophil count ([2]; MONARCH 1): 27%
- Grade 3 diarrhea ([2]; alone, MONARCH 1): 20%
- diarrhea ([2]; alone, MONARCH 1): 90%
- neutropenia ([2]; alone, MONARCH 1): 37%
- alanine aminotransferase (ALT) increased ([2]; human, in vivo): 41%
- aspartate aminotransferase (AST) increased ([2]; human, in vivo): 37%
- dose reductions due to diarrhea of any grade ([2]; human, in vivo): 19%
- dose reductions due to neutropenia of any grade ([2]; human, in vivo): 10%
- permanent treatment discontinuation due to an adverse event ([2]; human, in vivo): 9%
- Grade 3 diarrhea ([2]; plus fulvestrant, MONARCH 2): 13%
- diarrhea ([2]; plus fulvestrant, MONARCH 2): 86%
- neutropenia ([2]; plus fulvestrant, MONARCH 2): 46%
- Grade ≥3 decrease in neutrophil count ([2]; plus fulvestrant, MONARCH 2): 32%
- dose reductions due to an adverse reaction ([2]; plus fulvestrant): 43%

Structure (SMILES): CC(=O)c1c(C)c2cnc(Nc3ccc(N4CCNCC4)cn3)nc2n(C2CCCC2)c1=O [palbociclib]
- incidence of neutropenia ([3]; Study 1 (PALOMA-2)): 80%
- incidence of neutropenia ([3]; Study 2 (PALOMA-3)): 83%
- complete drug discontinuation ([3]; human, in vivo): 8%
- median duration of Grade ≥3 neutropenia ([3]; human, in vivo): 7 days
- median time to first episode of any grade neutropenia ([3]; human, in vivo): 15 days
- patients requiring a dose interruption ([3]; human, in vivo): 71%
- patients requiring a dose reduction ([3]; human, in vivo): 36%
- Grade ≥3 decrease in neutrophil counts ([3]; patients in PALOMA-2 and PALOMA-3): 66%
- increased alanine transferase ([3]; patients treated): 40%
- increased aspartate aminotransferase (AST) ([3]; patients treated): 48%
- T½ [4]: roughly 27 hours

Structure (SMILES): CN(C)C(=O)c1cc2cnc(Nc3ccc(N4CCNCC4)cn3)nc2n1C1CCCC1 [ribociclib]
- Grade 3 or 4 increases in ALT ([5]; KISQALI treatment arms): 10%
- Grade 3 or 4 increases in AST ([5]; KISQALI treatment arms): 7%
- patients with at least one average QTcF interval of more than 480 msec after baseline ([5]; MONALEESA-2 study): 3.3%
- alopecia ([5]; adverse reaction): 33%
- back pain ([5]; adverse reaction): 20%
- constipation ([5]; adverse reaction): 25%
- diarrhea ([5]; adverse reaction): 35%
- fatigue ([5]; adverse reaction): 37%
- headache ([5]; adverse reaction): 22%
- leukopenia ([5]; adverse reaction): 33%
- neutropenia ([5]; adverse reaction): 75%
- vomiting ([5]; adverse reaction): 29%
- Grade 3/4 decrease in neutrophil count ([5]; based on laboratory findings): 60%
- treatment discontinuation due to increased ALT ([5]; first mention): 4%
- QT interval ([5]; human, in vivo): prolong the QT interval in a concentration-dependent manner
- dose reductions due to adverse reactions ([5]; human, in vivo): 45%
- permanent discontinuations due to ARs ([5]; human, in vivo): 7%
- treatment discontinuation due to vomiting ([5]; human, in vivo): 2%
- treatment discontinuation due to increased ALT ([5]; second mention): 3%

Structure (SMILES): C=CC(=O)Nc1cc(Nc2nccc(-c3cn(C)c4ccccc34)n2)c(OC)cc1N(C)CCN(C)C [osimertinib, reference compound]
- tumor growth vs vehicle, single agent [6]: modest tumor growth inhibition
- nail toxicity [7]: 22%
- patients experiencing Grade 3 neutropenia [7]: up to 2.2%
- tumor growth vs vehicle, single agent [8]: did not cause an effect

Structure (SMILES): CN(C)C/C=C/C(=O)Nc1cc2c(Nc3ccc(F)c(Cl)c3)ncnc2cc1O[C@H]1CCOC1 [GILOTRIF, afatinib]
- fatal liver test abnormalities ([9]; 3865 patients): 0.18%
- liver test abnormalities ([9]; 3865 patients): 10.1%
- diarrhea [9, 11]: 96%
- dry skin [9, 11]: 31%
- paronychia [9, 11]: 58%
- pruritus [9, 11]: 21%
- rash/acneiform dermatitis [9, 11]: 90%
- stomatitis [9, 11]: 71%
- decreased appetite ([9]; human, in vivo): 29%
- fatal pneumonia ([9]; human, in vivo): 0.43%
- fatal pulmonary toxicity/interstitial lung disease (ILD)-like adverse reactions ([9]; human, in vivo): 1.3%
- fatal sepsis ([9]; human, in vivo): 0.43%
- nausea ([9]; human, in vivo): 25%
- serious adverse reaction: diarrhea ([9]; human, in vivo): 6.6%
- serious adverse reaction: dyspnea ([9]; human, in vivo): 1.7%
- serious adverse reaction: fatigue ([9]; human, in vivo): 1.7%
- serious adverse reaction: hypokalemia ([9]; human, in vivo): 1.7%
- serious adverse reaction: vomiting ([9]; human, in vivo): 4.8%
- serious adverse reactions ([9]; human, in vivo): 29%
- ventricular dysfunction (all <Grade 3) ([9]; human, in vivo): 2.2%
- vomiting ([9]; human, in vivo): 23%

Structure (SMILES): C#Cc1cccc(Nc2ncnc3cc(OCCOC)c(OCCOC)cc23)c1.Cl [TARCEVA, erlotinib]
- overall incidence of ILD ([10]; approximately 32,000 patients, all studies): approximately 1.1%
- discontinued therapy due to adverse reactions ([10]; human, in vivo): 14.3%
- dose interruptions or reductions due to adverse reactions ([10]; human, in vivo): 37%
- dose modification due to asthenia ([10]; human, in vivo): 3.6%
- dose modification due to diarrhea ([10]; human, in vivo): 10%
- dose modification due to rash ([10]; human, in vivo): 13%
- liver function test abnormalities (ALT, AST, bilirubin) ([10]; human, in vivo): Grade 2 and Grade 3 liver function test abnormalities
- median time to onset of diarrhea ([10]; human, in vivo): 32 days
- median time to onset of rash ([10]; human, in vivo): 15 days
- most frequent Grade 3-4 adverse reactions ([10]; human, in vivo): rash and diarrhea
- most frequent adverse reactions: diarrhea, asthenia, rash, cough, dyspnea, decreased appetite ([10]; human, in vivo): ≥ 30%
- median onset of ILD symptoms after initiating therapy ([10]; patients with ILD): 39 days
- onset of ILD symptoms after initiating therapy (span) ([10]; patients with ILD): between 5 days to more than 9 months
